US11951171B2, “Polypeptide EXP and its drug delivery system as well as extracellular vesicle extraction” (TIANJIN MEDICAL UNIVERSITY, priority 2019, dated 2024)

Legend:
[1] = tested on: exosomes recovered by EXP; test: Binding efficiency of CP05 and EXP with serum exosomes recovered by EXP; details: serum exosomes recovered by EXP (FIG. 6E)
[2] = target: T1, CD81 (Mus musculus, UniProt P35762); test: EXP target detection by co-immunoprecipitation, silver staining and Western blot; type: binding; details: Flag-tagged peptide on anti-flag beads, C2C12 lysate; band about 45 kD and 25 kD
T1 construct: endogenous in cells; host or cells: C2C12 cells (lysate)
T1 sequence (P35762 1-236): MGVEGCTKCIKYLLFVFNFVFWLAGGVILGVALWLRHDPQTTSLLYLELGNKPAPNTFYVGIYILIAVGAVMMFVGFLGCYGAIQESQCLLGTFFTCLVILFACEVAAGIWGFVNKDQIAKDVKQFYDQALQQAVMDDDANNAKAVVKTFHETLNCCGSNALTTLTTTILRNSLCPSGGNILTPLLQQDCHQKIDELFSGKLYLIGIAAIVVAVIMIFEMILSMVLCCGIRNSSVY
Method: (A) Silver staining and Western blot were used to detect the interest proteins band obtained by co-immunoprecipitation. Flag-tagged CP05 or EXP was incubated with anti-flag coated beads, and followed by co-incubation with cell lysates after removing the free peptides which were unconjugated with beads. The specific enriched proteins in the cell protein lysate were fished by using the polypeptide. Then the size distribution of the fishing strip was detected by silver staining, and the expression of different Tetraspanin family proteins in the fishing strip was detected by Western blot. […] (B)Immunoprecipitation was used to catch the target of EXP. The results are the same as above. […]

In the case of CRHKMWTVKSRL (EXP), the “binding efficiency with recovered exosomes” value [1] is reported as 95.9% and the “protein band fished from cell lysate, confirmed by Western blot as CD81” value [2] is reported as “distinct protein bands”.
